Each molecule was assayed on Escherichia coli (assay: Antimicrobial activity against Escherichia coli isolates producing extended-spectrum beta-lactamases bla(CTX-M-1), bla(CTX-M-32) and bla(SHV-12) isolated from Italian broiler flocks by agar dilution method).
Format: functional

Structure (SMILES) | MIC [µg/mL]
CO/N=C(\C(=O)N[C@@H]1C(=O)N2C(C(=O)O)=C(COC(C)=O)CS[C@H]12)c1csc(N)n1 [CEFOTAXIME] | ≥ 2
CO/N=C(\C(=O)N[C@@H]1C(=O)N2C(C(=O)O)=C(CSC(=O)c3ccco3)CS[C@H]12)c1csc(N)n1 [CEFTIOFUR] | ≥ 8
O=C(O)c1cn(C2CC2)c2cc(N3CCNCC3)c(F)cc2c1=O [CIPROFLOXACIN] | < 0.03

These molecules were tested on Escherichia coli (assay: Antimicrobial activity against Escherichia coli isolates producing extended-spectrum beta-lactamases bla(CTX-M-1), bla(CTX-M-32) and bla(SHV-12) assessed as resistant isolates isolated from Italian broiler flocks by disk diffusion method).

Structure (SMILES) | Activity [%]
O=C(O)c1cn(C2CC2)c2cc(N3CCNCC3)c(F)cc2c1=O [CIPROFLOXACIN] | 44
CCn1cc(C(=O)O)c(=O)c2ccc(C)nc21 [NALIDIXIC ACID] | 83
CN(C)[C@@H]1C(O)=C(C(N)=O)C(=O)[C@@]2(O)C(O)=C3C(=O)c4c(O)cccc4[C@@](C)(O)[C@H]3C[C@@H]12 [TETRACYCLINE] | 94

From ChEMBL document CHEMBL1255407, “High diversity of extended-spectrum beta-lactamases in Escherichia coli isolates from Italian broiler flocks” (2010)
